Laboratory results from patent US6716628B2, “Chondrogenesis promoters and indolin-2-one derivatives” (Chugai Seiyaku Kabushiki Kaisha, priority 1999, dated 2004).

Tests used:
[1] = system: rabbit osteoarthritis model; assay: Pathology suppressing effect in a rabbit osteoarthritis model; assay type: in vivo; details: 3.0 mmol/L, vs solvent alone
Description: Rabbit osteoarthritis model was prepared using 12-week-old male NZW rabbits (Kitayama Labes Co., Ltd.), and performing partial menisectomy in right knee, and excision of the lateral collateral ligament and sesamoid ligament, according to the method of Colombo et al. (Arthritis Rheum. 26(7):875-886, 1983). Beginning on the 7th day after the operation, 500 μL of a 50% dimethylsulfoxide (DMSO) physiological saline solution (DMSO: Junsei Chemical Corp., physiological saline: Otsuka Pharmaceutical Corp.) or 3.0 mmol/L of compound A solution was intraarticularly administered once a day into the right knee joint for a period of 3 weeks. The daily dosage of compound A was 816.8 μg.
On the day following the day of final administration, the right femoral distal and crural proximal sections were taken, and the femur was immersed overnight in 2% paraformaldehyde-2.5% glutaraldehyde fixing solution (both by Wako Pure Chemical Industries) for fixation, while the crus was immersed for one week in 20% neutral buffered formalin (Wako Pure Chemical Industries) for fixation.
After post-fixation of the femoral distal section with 1% osmium solution (Wako Pure Chemical Industries), it was dipped in an increasing ethanol series for dehydrogenation, and then substituted with isoamyl acetate and subsequently dried with a critical point drying apparatus (Hitachi Co., Ltd.). The dried tissue surface was coated with gold using an ion sputter coating apparatus (Eiko Corp.), and the femoral condyle cartilage surface was observed using a scanning electron microscope (Hitachi Co., Ltd.) (FIGS. 15A and 15B). The area of the damaged sections of the articular cartilage in the electron photomicrograph was measured using IPAP image analysis software (Sumika Technoservice Co., Ltd.), and judged on the scale shown in Table 11 below.
The proximal region of tibia was trimmed with a band saw (EXAKT Corp.) and then demineralized for 4 weeks with 20% EDTA-4Na solution (pH 7.4, Wako Pure Chemical Industries). […]

[2] = system: healthy rats (auricula, trachea, sternum, femoral/crural knee joint, lumbar spine disk cartilage); assay: Chondrogenesis promoting effect with oral administration to healthy rats; assay type: in vivo, rat; details: oral 2 g/kg/day for 4 weeks, 6-week-old male SD rats, vs 3% gum Arabic vehicle; histology
Description: “Compound A” obtained in Synthesis Example 1 above was suspended in a 3% gum Arabic solution and orally administered to 6-week-old male SD rats (Nihon SLC Corp./Nihon Charles River Corp.) at a dosage of 2 g/kg/day for 4 weeks.
Each rat was then autopsied, the auricula, trachea, sternum, femoral/crural knee joint and lumbar spine (disk) were immersed for one week in 20% neutral buffer formalin (Wako Pure Chemical Industries, Co., Ltd.) and fixed, the sternum, femoral/crural knee joint and lumbar spine (disk) were then demineralized for 2 weeks with a 20% EDTA-4Na solution (pH 7.4, Wako Pure Chemical Industries), and observation sites were trimmed with a razor (Feather Co., Ltd.). Observation sites were trimmed from the auricula and trachea with a razor without demineralization.
Each of the trimmed tissue samples was prepared into a paraffin embedded block using an automatic embedding apparatus (Sakura Corp.) and paraffin (equivalent mixture of products by Kokusan Kagaku Corp. and Fisher Scientific Corp.). Here, a paraffin automatic dispensing embedding center (Miles Scientific Corp.) was used to fix each paraffin block in a tissue sample cassette (TISSUE-TEK Corp.)
The paraffin block was cut into 2 μm-thick sections using a microtome (Daiwa Optical Instruments Corp.) and microtome knife (Feather Co., Ltd.), and then attached onto slide glass (Matsunami Glass Corp.) and dried. […]

[3] = system: full thickness cartilage deficient rat models; assay: Cartilage repair effect in full thickness cartilage deficient rat models; assay type: in vivo; details: 1.0 mmol/L, 50 μL intraarticular daily for 3 weeks from day 7 after operation
Description: A Kirschner wire with a 2.4 mm diameter (Mizuho Medical Instruments Corp.) was used to create a 2.5 mm-deep deficient area in the right femoral patellar surface, reaching to the marrow, in 10-week-old male CD rats (Nihon Charles River Co., Ltd.). From the seventh day after the operation, 50 μL of a 50% dimethylsulfoxide (DMSO) physiological saline solution as a solvent (DMSO: Junsei Chemical Corp.; physiological saline: Otsuka Pharmaceutical Corp.), or of a 1.0 mmol/L compound A solution, was administered into the right knee joint daily once a day for 3 weeks. The daily dosage of compound A was 81.7 μg.
On the day following the day of final administration, the right femur was taken, and fixed in 20% neutral buffered formaldehyde (Wako Pure Chemical Industries) for one week, and then demineralized for 2 weeks with 20% EDTA-4Na solution (pH 7.4, Wako Pure Chemical Industries), and the deficient area was trimmed with a razor (Feather Co., Ltd.). The trimmed area was subjected to paraffin blocking using an automatic embedding apparatus (Sakura Corp.) and paraffin (equivalent mixture of products by Kokusan Kagaku Corp. and Fisher Scientific Corp.). Here, a paraffin automatic dispensing embedding center (Miles Scientific Corp.) was used to fix each paraffin block in a tissue sample cassette (TISSUE-TEK Corp.)
Each paraffin block was cut into 2 μm-thick sections using a microtome (Daiwa Optical Instruments Corp.) and microtome knife (Feather Co., Ltd.), and then attached onto slide glass (Matsunami Glass Corp.) and dried. After drying, the sections were dipped in xylene to remove the paraffin, and then dipped in a step dilution series from ethanol to water and then stored in water. The sections were stained with 0.3% Safranin O (Merck Co.,.Ltd.) and observed with a microscope (magnification: 10× object lens), and a histological score was assigned according to a modification of the method of Wakitani et al. (J. Bone Joint Surg. 76-A, 579-592, 1994).

[4] = 500 μL intraarticular once a day for 3 weeks from day 7 after operation

CCOC(CN1C(=O)[C@](CC(=O)Nc2ccc(C)cc2)(NC(=O)Nc2ccc(C)cc2)c2ccccc21)OCC [Compound A, (+)-1-(2,2-diethoxyethyl)-3-((4-methylphenyl)aminocarbonylmethyl)-3-(N′-(4-methylphenyl)ureido)indolin-2-one]
medium grade lesion area of articular cartilage (scanning electron microscope) [1, 4]: significantly smaller area of damage | total lesion area of articular cartilage (scanning electron microscope) [1, 4]: significantly smaller area of damage | total histological scores, except for the loss of superficial layer ([1]; 500 μL intraarticular once a day for 3 weeks, Safranin O stained tibia sections): significantly lower | hyaline cartilage formation (auricula, trachea, sternum, knee joint, lumbar spine disk) [2]: accelerated hyaline cartilage formation in all of the organs | repair of deficient areas (Safranin O staining) [3]: exhibited repair in the Safranin O-positive cartilaginous tissue | histological score: cell morphology ([3]; vs solvent alone): significant decrease | histological score: thickness of cartilage ([3]; vs solvent alone): significant decrease | histological total score ([3]; vs solvent alone): significant decrease
